Reference: article PMC6338644 (The FASEB Journal, 2018)
Where “and” joins values, the source holds several entries; their conditions need not be identical. Identical values can stand only once. Counter-ions that a name gives are not always drawn. Like-named read-outs stand apart in the source and are kept apart here.

Legend:
[1] = molecular target: T1, His-tagged human SHIP2 phosphatase domain (Homo sapiens, UniProt O15357); test: Malachite green phosphate assay, recombinant SHIP2 phosphatase domain (High Throughput Biomedicine Unit, 384-well); assay type: biochemical
T1 construct: we produced a His-tagged human SHIP2 phosphatase domain; His; made in house
T1 sequence (O15357 419-732 limits assumed): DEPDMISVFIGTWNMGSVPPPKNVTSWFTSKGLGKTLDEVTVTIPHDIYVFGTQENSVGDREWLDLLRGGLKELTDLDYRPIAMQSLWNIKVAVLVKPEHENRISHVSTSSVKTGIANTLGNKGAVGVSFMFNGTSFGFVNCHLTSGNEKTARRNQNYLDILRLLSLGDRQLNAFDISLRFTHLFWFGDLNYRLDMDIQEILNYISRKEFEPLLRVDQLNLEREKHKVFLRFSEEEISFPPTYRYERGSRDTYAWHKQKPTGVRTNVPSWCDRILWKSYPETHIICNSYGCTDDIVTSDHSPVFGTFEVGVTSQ
Description: (§1) Recombinant His-tagged human SHIP2 and SHIP1 phosphatase domains were produced as previously described ([17]). […] Immunocomplexes were bound to protein G-Sepharose beads at +4°C for 2 h and washed 3 times with malachite green phosphate assay buffer {10 mM 4-(2-hydroxyethyl)-1-piperazineethanesulfonic acid (HEPES), pH 7.25, 6 mM MgCl2, 0.1% 3-[(3-cholamidopropyl)dimethylammonio]-1-propanesulfonate (CHAPS), 250 mM sucrose, and 0.25 mM EDTA}.
(§2) The catalytic activities of the recombinant SHIP2 and SHIP1 phosphatase domains were determined by malachite green phosphate assay at the High Throughput Biomedicine Unit (University of Helsinki) using D-myo-PI(3,4,5)P3 (Echelon Biosciences, Salt Lake City, UT, USA). Different volumes, resulting in desired final concentrations of inhibitors, were transferred to the wells of 384-well plates by using the Echo550 acoustic dispenser (Labcyte, San Jose, CA, USA). Recombinant protein (100 ng) in reaction buffer {10 mM HEPES, pH 7.25, 6 mM MgCl2, 0.1% CHAPS, 250 mM sucrose, and 0.25 mM EDTA} was placed in each well (7.5 µl), and the plates were preincubated at room temperature for 15 min. The phosphatase reaction was started by adding PI(3,4,5)P3 diluted in the reaction buffer (7.5 µl) to each well to reach a final concentration of 100 µM PI(3,4,5)P3 in the 15 µl reaction volume. The plates were incubated at room temperature for 20 min, after which, 15 µl BIOMOL green reagent (Biomol, Plymouth Meeting, PA, USA) was added to each well, and then the plates were incubated for another 25 min at room temperature. Absorbance was measured at 620 nm using a Pherastar FS plate reader (BMG Labtech, Offenburg, Germany). For the manual malachite green phosphate assay in 96-well plates [see Fig. 1; and activity measurement of phosphatase and tensin homolog (PTEN; Signalchem, Richmond, BC, Canada)], the reaction volume was increased to 50 µl, and 100 µl Biomol Green Reagent was added. The catalytic activity of SHIP2 immunoprecipitated from cell and tissue lysates was determined as in Saurus et al. ([22]), omitting SHIP2 inhibitors in lysis buffer, immunoprecipitation reaction, wash, and assay buffers. AS1949490 was synthesized, as described in Supplemental Fig. S1A, or purchased from Tocris Bioscience (Bristol, United Kingdom).

[2] = molecular target: T2, phosphatase and tensin homolog (PTEN) (Homo sapiens, UniProt P60484); test: Manual malachite green phosphate assay, PTEN activity; assay type: biochemical
T2 construct: purchased Signalchem

[3] = system: SHIP2 immunoprecipitated from the lysates of L6 myotubes; assay type: cell-based, rat; settings: 20–24 h
Description: Immortalized human podocytes were maintained as previously described ([10]). […] Podocytes were lysed as previously described ([21]).
as §1, §2
Hydrogen bond is shown in green. Hydrophobic residues are shown in gray, positive-charged residues in blue, and negative-charged residues in red. […] The catalytic activity of SHIP2 was measured by manual malachite green phosphate assay.

[4] = molecular target: T3, His-tagged human SHIP1 phosphatase domain (Homo sapiens, UniProt Q92835); test: Malachite green phosphate assay, recombinant SHIP1 phosphatase domain (High Throughput Biomedicine Unit); assay type: biochemical; settings: for IC50: purified His-tagged phosphatase domain
T3 construct: Recombinant His-tagged human SHIP2 and SHIP1 phosphatase domains were produced as previously described; His; made in house
T3 sequence (Q92835 399-715 limits assumed): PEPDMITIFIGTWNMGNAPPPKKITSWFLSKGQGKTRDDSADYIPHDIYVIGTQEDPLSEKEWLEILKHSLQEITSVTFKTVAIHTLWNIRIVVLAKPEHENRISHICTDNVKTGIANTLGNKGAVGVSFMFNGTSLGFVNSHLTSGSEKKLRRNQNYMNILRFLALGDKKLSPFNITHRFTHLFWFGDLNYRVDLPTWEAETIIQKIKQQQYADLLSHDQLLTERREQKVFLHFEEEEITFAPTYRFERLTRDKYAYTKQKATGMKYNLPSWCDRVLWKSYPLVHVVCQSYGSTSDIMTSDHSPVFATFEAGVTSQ
Description: as §1, §2

[5] = inhibitors at 100 µM concentration, 100 µM

T2 sequence (P60484 whole entry, species assumed): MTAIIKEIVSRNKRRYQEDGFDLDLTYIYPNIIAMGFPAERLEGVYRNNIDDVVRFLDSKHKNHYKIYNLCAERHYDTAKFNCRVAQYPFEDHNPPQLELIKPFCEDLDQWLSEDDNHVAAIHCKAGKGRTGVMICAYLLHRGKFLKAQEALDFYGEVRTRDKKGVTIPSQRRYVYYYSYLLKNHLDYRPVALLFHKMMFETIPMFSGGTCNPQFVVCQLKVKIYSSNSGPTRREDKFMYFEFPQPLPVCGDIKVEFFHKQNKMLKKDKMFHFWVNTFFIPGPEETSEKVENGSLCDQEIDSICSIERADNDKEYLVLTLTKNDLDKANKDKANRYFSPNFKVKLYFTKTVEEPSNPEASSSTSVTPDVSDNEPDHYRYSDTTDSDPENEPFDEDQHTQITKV

SMILES	SHIP2 Inhibition efficiency [1, 5]	PTEN Inhibition efficiency ([2]; inhibitors at 100 µM concentration) [%]	IC50 ([2]; manual assay) [µM]	reduction of SHIP2 activity in myotubes ([3]; 20 µM) [%]	SHIP1 Inhibition efficiency [4, 5]	IC50 [4] [µM]	inhibition at 100 µM ([1]; inhibitors at 100 µM concentration, read-out: SHIP2 Inhibition efficiency) [%]	IC50 ([1]; purified His-tagged phosphatase domain, 100 µM PI(3,4,5)P3) [µM]	inhibition of PTEN (in words) [2]	PTEN IC50 ([2]; manual assay) [µM]	reduction of SHIP2 activity in myotubes ([3]; 1 mM) [%]	SHIP2 overexpression-induced SHIP2 activity in myotubes ([3]; L6 myotubes overexpressing SHIP2, 1 mM)	inhibition of SHIP1 (in words) [4]	inhibition at 100 µM ([4]; inhibitors at 100 µM concentration, read-out: SHIP1 Inhibition efficiency) [%]
C[C@H](NC(=O)c1sccc1OCc1ccc(Cl)cc1)c1ccccc1 [AS1949490]	26% and 25.9%	0	> 50	~30	12% and 11.8%	> 50								
CN(C)C(=N)N=C(N)N [Metformin, 1,1-Dimethylbiguanide hydrochloride]				~30		> 50	39.4	6	does not inhibit	>50	24	to the level in the control	does not inhibit	11.1
